From patent publication US8865737B2, “Antitumor agent for undifferentiated gastric cancer” (Eisai R&D Management Co., Ltd., priority 2006, dated 2014) come the findings set out here.

The target of test [1] is T1, FGFR2 recombinant protein (Homo sapiens, UniProt P21802).
T1 construct: purchased Upstate (UK)
Put plainly: FGFR2 kinase inhibitory activity (cell free kinase assay, Upstate). It counts as biochemical. The conditions noted are these: poly(Glu, Tyr)4:1 substrate, [γ-33P]-ATP, 40 minutes at room temperature.
Protocol: Specifically, the FGFR2 kinase inhibitory activity was measured as follows.
MgATP was added to 25 μL of solution containing 5-10 mU of FGFR2 recombinant protein, 8 mM MOPS (pH 7.0), 0.2 mM EDTA, 2.5 mM MnCl2, 0.1 mg/ml poly (Glu, Tyr)4:1, 10 mM Mg Acetate, 500 cpm/mol [γ-^33P]-ATP and a test substance to initiate reaction.
Following 40 minutes of reaction at room temperature, 5 μL of 3% phosphoric acid was added to terminate the reaction. 10 μL of the reaction solution was spotted on Filtermat A, which was washed with 75 mM phosphoric acid for five times and once with ethanol and then dried. The radioactivity of the spot was determined (measured).
In this regard, a value obtained when substrate Poly(Glu, Tyr)4:1 was contained but not the FGFR2 recombinant protein was assumed 0% value while a value obtained when the FGFR2 recombinant protein and substrate Poly(Glu, Tyr)4:1 were contained but not the test substance was assumed 100% value.
The kinase activity in the presence of the test substance at each concentration was calculated as percentage of the value obtained by subtracting the 0% value from each radioactivity value to the value obtained by subtracting the 0% value from the 100% value.

In test [2] the test system is FGFR2. Put plainly: FGFR2 phosphorylation in human undifferentiated gastric cancer cell lines (immunoprecipitation, western blotting). The note with it: 1 μM, one hour; KATO-III, SNU-16 and HSC-39 cells (FIG. 1). The test is classed as cell-based. The procedure:
Human undifferentiated gastric cancer cell lines (KATO-III (purchased from ATCC)), SNU-16 (purchased from ATCC) and HSC-39 (purchased from Immuno-Biological Laboratories)) were suspended in RPMI1640 media (purchased from Sigma) containing 10% FBS (fetal bovine serum). KATO-III, SNU-16 and HSC-39 are cells showing FGFR2 gene amplification (Laboratory Investigation, 78, 1143-1153, 1998), and are also known as scirrhous gastric cancer cell lines. Each 10 mL of the cell suspensions (5×10^5 cells/mL) was placed into a 75 cm^2 cell culture flask (purchased from FALCON) and cultured in a 5% CO2 incubator (37° C.) overnight. In the case of KATO-III, the medium was replaced by an RMPI1640 medium containing 1% FBS. To this, 10 mL of the test substance 4-(3-chloro-4-(cyclopropylaminocarbonyl)aminophenoxy)-7-methoxy-6-quinolinecarboxamide (methanesulfonate) diluted in RPMI1640 containing 1% or 10% FBS was added and cultured in a 5% CO2 incubator (37° C.) for an hour. The culture solution was collected, each flask was washed with 5 mL PBS, and the mixture of the collected culture and the washing solution was centrifuged at 1,000 rpm, at 4° C. for 5 minutes. […]

Test [3] deals with HSC-39. The test is described as follows: Cell proliferation, Cell Counting Kit-8. It counts as cell-based. The note with it: Homo sapiens, 72 h; HSC-39, 10% FBS, three days; read-out: inhibition of cell proliferation IC50. On the procedure: (§1) Human undifferentiated gastric cancer cell lines (KATO-III (purchased from ATCC)), SNU-16 (purchased from ATCC) and HSC-39 (purchased from Immuno-Biological Laboratories)) were suspended in RPMI1640 media (purchased from Sigma) containing 10% FBS except that KATO-III was suspended in an RMPI1640 medium containing 1% FBS. The cell suspensions (KATO-III: 6×10^4 cells/mL; SNU-16 and HSC-39: 2×10^4 cells/mL) were placed into a 96-well cell culture plate (purchased from NUNC) at 0.1 mL/well and cultured in a 5% CO2 incubator (37° C.) overnight. Following cultivation, 0.1 mL of the test substance 4-(3-chloro-4-(cyclopropylaminocarbonyl)aminophenoxy)-7-methoxy-6-quinolinecarboxamide (methanesulfonate) diluted in an RPMI1640 medium containing 1% or 10% FBS was added to each well and further cultured in a 5% CO2 incubator (37° C.) for three days. Following cultivation, 20 μL of Cell Counting Kit-8 (purchased from DOJINDO) was added to each well and allowed to develop color in a 5% CO2 incubator (37° C.) to determine (measure) the absorbance of each well by using a plate reader MTP-500 (Corona Electric) at a measurement wavelength of 450 nm and a reference wavelength of 660 nm.

In test [4] the test system is KATO-III. The test is described as follows: Cell proliferation, Cell Counting Kit-8. It counts as cell-based. The note with it: Homo sapiens, 72 h, 1% FBS, three days, read-out: inhibition of cell proliferation IC50. On the procedure:
as §1

For test [5], the system named is SNU-16. The test is described as follows: Cell proliferation, Cell Counting Kit-8. The note with it: Homo sapiens, 72 h; SNU-16, 10% FBS, three days; read-out: inhibition of cell proliferation IC50. It counts as cell-based. The procedure: as §1
In test [6] the test system is HSC-39. Put plainly: Apoptosis of human undifferentiated gastric cancer cell line (PARP / caspase-3 fragmentation, western blotting). It counts as cell-based. The note with it: 1 μM, HSC-39, one or three days (FIG. 2). The procedure: Human undifferentiated gastric cancer cell line HSC-39 (purchased from Immuno-Biological Laboratories) was suspended in an RPMI1640 medium (purchased from Sigma) containing 10% FBS. Five mL of the cell suspension (4×10^5 cells/mL) was placed into a […] (purchased from FALCON). To this, 5 mL of the test substance 4-(3-chloro-4-(cyclopropylaminocarbonyl)aminophenoxy)-7-methoxy-6-quinolinecarboxamide (methanesulfonate) diluted in an RPMI1640 medium containing 10% FBS was added and cultured in a 5% CO2 incubator (37° C.) for one or three days. The culture solution was collected and each flask was washed with 5 mL PBS. The mixture of the collected culture solution and the washing solution was centrifuged at 1,000 rpm, at 4° C. for 5 minutes. For precipitation, 100 μL of a lysis buffer (50 mM Hepes (pH 7.4), 150 mM NaCl, 10% (v/v) glycerol, 1% Triton X-100, 1.5 mM MgCl2, 1 mM EDTA (pH 8.0), 100 mM NaF, 1 mM PMSF, 10 μg/mL Aprotinin, 50 μg/mL Leupeptin, 1 μg/mL Pepstatin A, 1 mM Na3VO4) was added to solubilize the cells. This solution was collected and centrifugated at 15,000 rpm, at 4° C. for 15 minutes. An SDS buffer was added to the supernatant to prepare a 25 μg/15 μL solution and the resultant was treated at 94° C. for 5 minutes to solubilize the protein, which was prepared as a cell sample solution. […]

The subject of test [7] is HSC-39. Put plainly: Anti-tumor effect, subcutaneous transplanted (xenograft) model. The test is classed as in vivo, nude mice. The note with it: HSC-39 xenograft, oral 1, 3, 10, 30 or 100 mg/kg once a day, four-weeks schedule (FIG. 3). The procedure:
(§2) Human undifferentiated gastric cancer cell lines (KATO-III (purchased from ATCC)), SNU-16 (purchased from ATCC) and HSC-39 (purchased from Immuno-Biological Laboratories) were cultured with RPMI1640 (containing 10% FBS) in a 5% CO2 incubator at 37° C. The cells were collected with trypsin-EDTA according to a conventional method. The cells were suspended in a phosphate buffer to prepare a 5×10^7 cells/mL suspension. Each 0.1 mL of the resulting cell suspensions was subcutaneously transplanted into the side of body of nude mice (purchased from Charles River). Following transplantation, the test substance 4-(3-chloro-4-(cyclopropylaminocarbonyl)aminophenoxy)-7-methoxy-6-quinolinecarboxamide (methanesulfonate) dissolved in distilled water for injection (purchased from Otsuka Pharmaceutical) was orally administered at 1, 3, 10, 30 or 100 mg/kg once a day on a four-weeks schedule (except for KATO-III, 30 or 100 mg/kg, once a day, two-weeks schedule) once the tumor volume became (reached) about 100-200 mm^3. The major and minor axes of tumors were measured with Digimatic caliper (Mitsutoyo), and tumor volumes were calculated according to the following formulae. Tumor Volume (TV)=Major axis of tumor (mm)×(Minor axis of tumor)^2 (mm^2)/2

Test [8] deals with KATO-III. Described as above. The test is classed as in vivo, nude mice. The conditions noted are these: oral 30 or 100 mg/kg once a day, two-weeks schedule (FIG. 3). On the procedure: as §2
Test [9] deals with SNU-16. The description is as above. The test is classed as in vivo, nude mice. The conditions noted are these: SNU-16 xenograft, oral 1, 3, 10, 30 or 100 mg/kg once a day, four-weeks schedule (FIG. 3). On the procedure: as §2
Test [10] deals with FGFR2. Put plainly: FGFR2 phosphorylation in tumor tissues of subcutaneous transplanted (xenograft) models. The test is classed as in vivo, nude mice. The conditions noted are these: SNU-16 and HSC-39 xenografts, oral 10, 30 or 100 mg/kg, tumors removed two hours after administration (FIG. 4). On the procedure:
Human undifferentiated gastric cancer cell lines (SNU-16 (purchased from ATCC) and HSC-39 (purchased from Immuno-Biological Laboratories) were cultured with RPMI1640 (containing 10% FBS) in a 5% CO2 incubator (37° C.) and cells were collected with trypsin-EDTA according to a conventional method. The cells were suspended in a phosphate buffer to prepare a 5×10^7 cells/mL suspension. Each 0.1 mL of the resulting cell suspensions was subcutaneously transplanted into the side of body of nude mice (purchased from Charles River).
Following transplantation, the test substance 4-(3-chloro-4-(cyclopropylaminocarbonyl)aminophenoxy)-7-methoxy-6-quinolinecarboxamide (methanesulfonate) dissolved in distilled water for injection (purchased from Otsuka Pharmaceutical) was orally administered at 10, 30 or 100 mg/kg once the tumor volume became (reached) about 400-800 mm^3. Tumors were removed two hours after the administration, to which a lysis buffer (50 mM Hepes (pH 7.4), 150 mM NaCl, 10% (v/v) glycerol, 1% TritonX-100, 1.5 mM MgCl2, 1 mM EDTA (pH 8.0), 100 mM NaF, 1 mM PMSF, 10 μg/mL Aprotinin, 50 μg/mL Leupeptin, 1 μg/mL Pepstatin A, 1 mM Na3VO4) and 25 mM β-glycerophosphate and phosphatase inhibitor cocktail II (SIGMA)) was added for homogenization. The resultant was centrifugated at 15,000 rpm, at 4° C. for 15 minutes. 1000 μg/500 μL of The supernatant was prepared as a tumor extract. […]

T1 sequence (P21802 22-821): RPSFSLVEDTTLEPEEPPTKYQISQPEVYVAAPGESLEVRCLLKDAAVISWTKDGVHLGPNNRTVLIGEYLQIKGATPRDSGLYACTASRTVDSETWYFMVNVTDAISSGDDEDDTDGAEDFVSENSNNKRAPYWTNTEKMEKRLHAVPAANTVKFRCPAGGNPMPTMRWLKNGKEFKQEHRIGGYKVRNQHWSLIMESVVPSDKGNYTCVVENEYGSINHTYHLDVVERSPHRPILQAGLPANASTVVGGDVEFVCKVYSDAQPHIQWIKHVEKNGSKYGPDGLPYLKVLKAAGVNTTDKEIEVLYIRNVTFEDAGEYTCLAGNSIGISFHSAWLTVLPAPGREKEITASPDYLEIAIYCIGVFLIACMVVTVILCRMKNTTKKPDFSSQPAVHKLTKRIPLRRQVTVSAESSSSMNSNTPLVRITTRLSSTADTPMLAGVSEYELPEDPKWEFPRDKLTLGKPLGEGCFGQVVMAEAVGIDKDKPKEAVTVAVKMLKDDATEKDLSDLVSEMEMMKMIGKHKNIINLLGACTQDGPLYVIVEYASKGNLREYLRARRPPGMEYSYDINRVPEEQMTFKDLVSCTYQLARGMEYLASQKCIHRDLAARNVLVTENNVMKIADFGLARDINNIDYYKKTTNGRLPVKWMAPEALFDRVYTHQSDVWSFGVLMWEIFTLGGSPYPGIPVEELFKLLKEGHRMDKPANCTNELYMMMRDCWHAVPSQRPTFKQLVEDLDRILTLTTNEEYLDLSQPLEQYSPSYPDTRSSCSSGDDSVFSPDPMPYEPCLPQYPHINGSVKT

Turning to `COc1cc2nccc(Oc3ccc(NC(=O)NC4CC4)c(Cl)c3)c2cc1C(N)=O` [4-(3-chloro-4-(cyclopropylaminocarbonyl)aminophenoxy)-7-methoxy-6-quinolinecarboxamide], the IC50 in [1] is less than 10 nM; in the test with HSC-39 [3] it was 157 nM; in the test with KATO-III [4] it was 141 nM; in the test on SNU-16 [5] it was 251 nM. The “phosphorylation of FGFR2” value in the test with FGFR2 [2] was “almost completely inhibited”. In addition, the cleaved-PARP entry with HSC-39 [6] is reported as “clearly detected”. Besides, the cleaved-caspase-3 entry in the test on HSC-39 [6] is “clearly detected”. The “anti-tumor effect (tumor volume)” value in the test on HSC-39 [7], with KATO-III [8] and with SNU-16 [9] was “dose-dependent anti-tumor effect” throughout. Besides, the “phosphorylation of FGFR2 in tumor” value with FGFR2 [10] was “inhibit phosphorylation of FGFR2”.
